Earlier results as cited in patent publication US9597377B2, “Stable formulations of purified proteins” (MOUNT SINAI SCHOOL OF MEDICINE OF NEW YORK UNIVERSITY, priority 2003, dated 2017).
Changes are numbered by the printed parent chain.

What was measured:
[1] = biological target: T1, mutant (R301Q) α-Gal A (Homo sapiens, UniProt P06280, R301Q); details: oral administration, transgenic mice overexpressing mutant (R301Q) α-Gal A; cited from earlier work
T1 construct: host or cells: transgenic mice overexpressing the mutant enzyme; activity measured in major organs
T1 sequence (P06280 32-429 R301Q): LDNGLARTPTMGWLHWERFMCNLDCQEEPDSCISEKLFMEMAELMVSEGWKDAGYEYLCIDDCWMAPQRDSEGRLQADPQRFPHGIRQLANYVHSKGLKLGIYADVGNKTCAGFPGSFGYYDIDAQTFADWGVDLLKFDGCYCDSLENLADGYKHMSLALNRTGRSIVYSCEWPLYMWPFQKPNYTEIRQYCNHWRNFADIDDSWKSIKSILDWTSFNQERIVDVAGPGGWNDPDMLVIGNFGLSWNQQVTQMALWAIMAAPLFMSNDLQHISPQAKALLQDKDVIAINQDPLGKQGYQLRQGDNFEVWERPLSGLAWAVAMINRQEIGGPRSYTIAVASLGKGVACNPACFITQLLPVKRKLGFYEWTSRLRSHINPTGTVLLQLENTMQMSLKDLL

[2] = biological target: T2, wild-type α-Gal A in COS-7 cells (Homo sapiens, UniProt P06280); details: COS-7 cells transfected with vector coding wild-type α-Gal A; cited from earlier work
T2 construct: expressed in transfected cells; host or cells: COS-7 cells
T2 sequence (P06280 32-429): T1 sequence (P06280 32-429 R301Q) with Q270R

[3] = tested on: lymphoblasts established from Fabry patients with R301Q or Q279E mutations; details: cited from earlier work
[4] = biological target: T3, mutant α-Gal A (R301Q) (Homo sapiens, UniProt P06280, R301Q); details: neutral pH; cited from earlier work
T3 sequence (P06280 32-429 R301Q): T1 sequence (P06280 32-429 R301Q)

OC[C@H]1NC[C@H](O)[C@@H](O)[C@H]1O [DGJ, 1-deoxygalactonojirimycin]
enzyme activity in major organs [1]: substantially elevated the enzyme activity | amount and activity of wild-type α-Gal A [2]: increase the amount and activity | mutant enzyme activity in lymphoblasts [3]: enhanced the mutant enzyme activity | in vitro stability of mutant α-Gal A (R301Q) [4]: effectively increased in vitro stability
